For this test, the target named is GABAA receptor α2 subunit (α2β3γ2 GABAAR) (Rattus norvegicus, UniProt P18508+P23576). The test is described as follows: [3H]Ro […]-4513 displacement on HEK293 membranes. In kind it is binding.

SMILES strings stand for the structures.

Sequence of GABAA receptor α2 subunit (α2β3γ2 GABAAR) (P23576 29-451): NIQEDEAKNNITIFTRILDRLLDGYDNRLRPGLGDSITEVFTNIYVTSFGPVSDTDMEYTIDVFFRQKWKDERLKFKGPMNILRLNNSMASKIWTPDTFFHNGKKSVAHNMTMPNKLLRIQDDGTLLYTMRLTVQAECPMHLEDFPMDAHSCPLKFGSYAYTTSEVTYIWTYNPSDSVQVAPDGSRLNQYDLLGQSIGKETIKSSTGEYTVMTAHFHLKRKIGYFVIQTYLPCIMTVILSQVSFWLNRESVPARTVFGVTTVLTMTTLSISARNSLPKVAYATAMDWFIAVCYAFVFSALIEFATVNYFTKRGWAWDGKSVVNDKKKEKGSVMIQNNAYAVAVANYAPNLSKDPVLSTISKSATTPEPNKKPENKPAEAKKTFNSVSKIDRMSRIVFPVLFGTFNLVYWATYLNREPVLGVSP
Sequence of GABAA receptor α2 subunit (α2β3γ2 GABAAR) (P18508 39-466): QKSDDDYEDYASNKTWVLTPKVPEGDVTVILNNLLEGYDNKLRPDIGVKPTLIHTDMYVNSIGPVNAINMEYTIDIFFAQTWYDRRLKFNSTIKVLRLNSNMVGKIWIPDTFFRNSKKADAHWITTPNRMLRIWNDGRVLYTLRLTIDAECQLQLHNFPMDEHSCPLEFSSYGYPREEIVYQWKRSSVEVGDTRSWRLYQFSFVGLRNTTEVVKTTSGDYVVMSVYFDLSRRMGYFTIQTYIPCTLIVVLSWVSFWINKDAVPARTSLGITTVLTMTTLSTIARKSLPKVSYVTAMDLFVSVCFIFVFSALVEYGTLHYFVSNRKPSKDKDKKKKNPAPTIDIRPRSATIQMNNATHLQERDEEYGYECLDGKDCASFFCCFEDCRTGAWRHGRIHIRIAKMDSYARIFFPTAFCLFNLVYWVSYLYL
Sequence of GABAA receptor α2 subunit (α2β3γ2 GABAAR) (P63079 26-473 partner): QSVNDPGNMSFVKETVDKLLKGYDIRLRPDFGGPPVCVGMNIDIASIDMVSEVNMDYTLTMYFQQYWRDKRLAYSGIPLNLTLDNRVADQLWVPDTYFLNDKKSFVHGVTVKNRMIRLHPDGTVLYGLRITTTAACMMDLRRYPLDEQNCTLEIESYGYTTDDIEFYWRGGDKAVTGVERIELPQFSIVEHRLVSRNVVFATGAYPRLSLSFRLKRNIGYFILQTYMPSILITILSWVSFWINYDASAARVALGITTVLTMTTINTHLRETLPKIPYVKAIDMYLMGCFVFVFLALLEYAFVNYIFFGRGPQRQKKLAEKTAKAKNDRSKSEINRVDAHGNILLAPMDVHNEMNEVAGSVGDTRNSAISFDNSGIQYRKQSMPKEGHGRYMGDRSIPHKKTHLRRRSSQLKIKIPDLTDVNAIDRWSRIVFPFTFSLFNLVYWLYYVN

Consider `C#Cc1ccc2c(c1)C(c1ccccn1)=NCc1c(C(=O)OCC)ncn1-2` [compound 2 in Rivas et al, 2009, ethyl 8-ethynyl-6-(pyridin-2-yl)-4H-benzo[f]imidazo[1,5-a][1,4]diazepine-3-carboxylate], for which the Ki was found to be 221 ± 22 nM.

For the origin of these results see publication PMC3870792 (Neuropsychopharmacology, 2013).
